Test results reported in patent publication US20260176320A1, “MODULATORS OF G-PROTEIN COUPLED RECEPTORS” (priority 2018, published 2026).
Where two headings read alike, the source gives them in different places.

What was measured:
GLP-1R [1] = biological target: T1, GLP-1R (Homo sapiens, UniProt P43220); experiment: HitHunter cAMP assay (GLP-1R); assay type: cell-based; conditions: cAMP; for Emax: read-out: (Emax) GLP-1R; for EC50: read-out: EC50 GLP-1R/nM
In short: (§1)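 cAMP accumulation read by luminescent HitHunter immunocompetition after 30 min room-temperature agonist stimulation. Agonists tested as 22-point twofold dilutions, in duplicate, on 10,000 cells/well in HBSS containing 625 μM IBMX, 10 mM HEPES and 0.2% BSA.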

GLP-1R [2] = biological target: T1, GLP-1R; experiment: PathHunter β-arrestin assay; assay type: cell-based; conditions: PathHunter β-arrestin assay; read-out: β-arrestin activity EC50
In short: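 β-Arrestin recruitment measured by PathHunter enzyme-fragment luminescence, read after 3 h dark incubation at room temperature with detection solution. Beforehand, agonist in a 22-point 2-fold series was applied in duplicate for 90 min at 37 °C to 5,000 cells/well in BSA-containing (0.2%) medium.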

GIP-R = biological target: T2, GIP-R (Homo sapiens, UniProt P48546); experiment: HitHunter cAMP assay (GIP-R); assay type: cell-based; conditions: cAMP; for Emax: read-out: (Emax) GIP-R; for EC50: read-out: EC50 GIP-R/nM
T2 sequence (P48546 22-466): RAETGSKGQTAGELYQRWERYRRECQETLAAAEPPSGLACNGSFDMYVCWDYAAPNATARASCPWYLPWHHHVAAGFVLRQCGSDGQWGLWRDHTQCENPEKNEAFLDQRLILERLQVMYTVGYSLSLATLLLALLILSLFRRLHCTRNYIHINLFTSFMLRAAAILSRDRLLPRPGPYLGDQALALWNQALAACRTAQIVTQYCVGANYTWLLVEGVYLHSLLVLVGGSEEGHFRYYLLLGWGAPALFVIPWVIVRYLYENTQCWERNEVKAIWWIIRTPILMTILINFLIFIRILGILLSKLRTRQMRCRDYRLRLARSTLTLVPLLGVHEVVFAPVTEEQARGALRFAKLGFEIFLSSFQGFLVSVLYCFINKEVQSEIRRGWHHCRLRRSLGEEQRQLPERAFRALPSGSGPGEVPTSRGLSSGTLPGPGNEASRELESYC
In short: as §1

mice = experiment: Glucose tolerance test (GTT); assay type: in vivo, mouse; conditions: 24 h GTT, s.c., percent of vehicle
In short: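 Compounds diluted in PBS from 1 mM DMSO stocks and given subcutaneously 15 min (5-6 h fast), 4 h (16 h overnight fast), 16 h or 24 h before intraperitoneal glucose (2 g/kg). Tail blood glucose read at 10–120 min post-glucose, at least 6 mice per time-point. Glucose AUC over time determined.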

T1 sequence (P43220 24-463): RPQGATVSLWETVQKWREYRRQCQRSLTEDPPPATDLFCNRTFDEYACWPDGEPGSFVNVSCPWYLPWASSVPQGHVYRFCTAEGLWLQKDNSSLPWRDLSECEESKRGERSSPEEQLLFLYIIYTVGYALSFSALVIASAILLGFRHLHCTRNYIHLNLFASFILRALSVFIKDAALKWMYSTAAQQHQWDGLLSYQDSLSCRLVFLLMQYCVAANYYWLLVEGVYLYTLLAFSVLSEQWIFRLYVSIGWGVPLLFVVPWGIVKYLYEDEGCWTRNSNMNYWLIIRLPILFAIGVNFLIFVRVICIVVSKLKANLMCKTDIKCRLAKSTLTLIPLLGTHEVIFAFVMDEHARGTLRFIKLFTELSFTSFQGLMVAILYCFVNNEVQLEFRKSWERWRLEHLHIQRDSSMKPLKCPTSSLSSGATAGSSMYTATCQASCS

| Compound | Emax (GLP-1R [1]; Table 3) [%] | EC50 (GLP-1R [1]; Table 3) [nM] | Emax (GLP-1R [1]; Table 3A) [%] | EC50 (GLP-1R [1]; Table 3A) [nM] | EC50 (GLP-1R [2]) [nM] | Emax (GIP-R; Table 3) [%] | EC50 (GIP-R; Table 3) [nM] | Emax (GIP-R; Table 3A) [%] | EC50 (GIP-R; Table 3A) [nM] | AUC score (mice; dose range 2-5 nmol/kg) | Emax at 1 µM (GIP-R; read-out: (Emax) GIP-R at 1 μM, Table 3, at 1 μM) [%] | AUC score (mice; dose range 5.1-15 nmol/kg) |
| --- | --- | --- | --- | --- | --- | --- | --- | --- | --- | --- | --- | --- |
| CCCCCCCCCCCCCCCC(=O)N[C@@H](CCC(=O)NCCCC[C@H](NC(=O)[C@H](CO)NC(=O)[C@@H]1CCCN1C(=O)[C@@H]1CCCN1C(=O)[C@@H]1CCCN1C(=O)[C@H](C)NC(=O)CNC(=O)[C@H](CO)NC(=O)[C@H](CO)NC(=O)[C@@H]1CCCN1C(=O)CNC(=O)CNC(=O)[C@H](C)NC(=O)[C@H](CC(C)C)NC(=O)[C@H](CC(C)C)NC(=O)[C@H](Cc1c[nH]c2ccccc12)NC(=O)[C@H](CC(N)=O)NC(=O)[C@@H](NC(=O)[C@H](Cc1ccccc1)NC(=O)[C@H](CCC(=O)O)NC(=O)C(C)(C)NC(=O)[C@H](C)NC(=O)[C@H](C)NC(=O)[C@H](CCC(N)=O)NC(=O)[C@H](CCCCN)NC(=O)[C@H](CC(=O)O)NC(=O)[C@H](CC(C)C)NC(=O)[C@H](Cc1ccc(O)cc1)NC(=O)[C@@H](NC(=O)[C@H](CO)NC(=O)[C@H](Cc1ccc(O)cc1)NC(=O)[C@H](CC(=O)O)NC(=O)[C@H](CO)NC(=O)[C@@H](NC(=O)[C@H](Cc1ccccc1)NC(=O)[C@@H](NC(=O)CNC(=O)[C@H](CCC(=O)O)NC(=O)CSCC(=O)NCCN1CCCC1=O)[C@@H](C)O)[C@@H](C)O)[C@@H](C)CC)C(C)C)C(N)=O)C(=O)O [Compound 83] | 106 | 0.1 to 1 | 106 | 0.1 to 1 | > 1000 | 73 | 1 to 10 | 73 | 1 to 10 | 2 (AUC score 2 = 26-50%) | – | – |
| CCCCCCCCCCCCCCCC(=O)N[C@@H](CCC(=O)NCCCC[C@H](NC(=O)[C@H](CO)NC(=O)[C@@H]1CCCN1C(=O)[C@@H]1CCCN1C(=O)[C@@H]1CCCN1C(=O)[C@H](C)NC(=O)CNC(=O)[C@H](CO)NC(=O)[C@H](CO)NC(=O)[C@@H]1CCCN1C(=O)CNC(=O)CNC(=O)[C@H](C)NC(=O)[C@H](CC(C)C)NC(=O)[C@H](CC(C)C)NC(=O)[C@H](Cc1c[nH]c2ccccc12)NC(=O)[C@H](CC(N)=O)NC(=O)[C@@H](NC(=O)[C@H](Cc1ccccc1)NC(=O)[C@H](CCC(=O)O)NC(=O)C(C)(C)NC(=O)[C@H](C)NC(=O)[C@H](C)NC(=O)[C@H](CCC(N)=O)NC(=O)[C@H](CCCCN)NC(=O)[C@H](CC(=O)O)NC(=O)[C@H](CC(C)C)NC(=O)[C@H](Cc1ccc(O)cc1)NC(=O)[C@@H](NC(=O)[C@H](CO)NC(=O)[C@H](Cc1ccc(O)cc1)NC(=O)[C@H](CC(=O)O)NC(=O)[C@H](CO)NC(=O)[C@@H](NC(=O)[C@H](Cc1ccccc1)NC(=O)[C@@H](NC(=O)CNC(=O)[C@H](CCC(=O)O)NC(=O)CSCC(=O)N1CCNC1=O)[C@@H](C)O)[C@@H](C)O)[C@@H](C)CC)C(C)C)C(N)=O)C(=O)O [Compound 98] | 96 | 0.1 to 1 | 96 | 0.1 to 1 | > 1000 | – | > 1000 | – | > 1000 | – | < 5 | 2 (AUC score 2 = 26-50%) |
| CCCCCCCCCCCCCCCC(=O)N[C@@H](CCC(=O)NCCCC[C@H](NC(=O)[C@H](CO)NC(=O)[C@@H]1CCCN1C(=O)[C@@H]1CCCN1C(=O)[C@@H]1CCCN1C(=O)[C@H](C)NC(=O)CNC(=O)[C@H](CO)NC(=O)[C@H](CO)NC(=O)[C@@H]1CCCN1C(=O)CNC(=O)CNC(=O)[C@H](C)NC(=O)[C@H](CC(C)C)NC(=O)[C@H](CC(C)C)NC(=O)[C@H](Cc1c[nH]c2ccccc12)NC(=O)[C@H](CC(N)=O)NC(=O)[C@@H](NC(=O)[C@H](Cc1ccccc1)NC(=O)[C@H](CCC(=O)O)NC(=O)C(C)(C)NC(=O)[C@H](C)NC(=O)[C@H](C)NC(=O)[C@H](CCC(N)=O)NC(=O)[C@H](CCCCN)NC(=O)[C@H](CC(=O)O)NC(=O)[C@H](CC(C)C)NC(=O)[C@H](Cc1ccc(O)cc1)NC(=O)[C@@H](NC(=O)[C@H](CO)NC(=O)[C@H](Cc1ccc(O)cc1)NC(=O)[C@H](CC(=O)O)NC(=O)[C@H](CO)NC(=O)[C@@H](NC(=O)[C@H](Cc1ccccc1)NC(=O)[C@@H](NC(=O)CNC(=O)[C@H](CCC(=O)O)NC(=O)CSCC(=O)NCCN1C(=O)CCC1=O)[C@@H](C)O)[C@@H](C)O)[C@@H](C)CC)C(C)C)C(N)=O)C(=O)O [Compound 114] | 94 to 103 | 0.1 to 10 | 94 to 103 | 0.1 to 10 | > 1000 | 42 to 63 | 1 to 10 | 42 to 63 | 1 to 10 | 3 (AUC score 3 = 51-75%) | – | – |
